Assay results taken from article PMC10301845, “Characterization of a Novel M4 PAM PET Radioligand [11C]PF06885190 in Nonhuman Primates (NHP)” (Molecules, 2023).
Like-named read-outs stand apart in the source and are kept apart here.

Key:
[1] = Radiometabolite analysis in NHP blood plasma (gradient HPLC); type: in vivo, cynomolgus monkey
Description: Radiometabolites in NHP blood plasma were analyzed following a previously published method. A reverse-phase HPLC system with an UV absorbance detector (ƛ = 254 nm) coupled to a radio detector was used to determine the percentages of radioactivity corresponding to [^11C]PF06885190 and its radioactive metabolites during whole PET measurement. Arterial blood samples (0.7–1.5 mL) were obtained using an automated blood sampling system from the monkey at different time points such as 2, 5, 15, 30 and 60 min after injection of [^11C]PF06885190 following a previously described method. Plasma was separated from collected blood by centrifuging at 4000 rpm for 2 min. The obtained plasma was diluted with 1.4 times volume of acetonitrile and then centrifuged at 6000 rpm for 4 min. The extract was separated from the pellet and was diluted with water (3 mL) before being injected into the HPLC system. The HPLC system was coupled to an Agilent binary pump (Agilent 1200 series) which was connected to a manual injection valve (7725i, Rheodyne), a 5.0 mL loop, and a radiation detector (Oyokoken, S-2493Z) housed in a shield of 50 mm thick lead. A semi-preparative reverse-phase, an ACE 5µm C18 HL column ([…]), was used to achieve the chromatographic separation (Figure S4A,B, Supplementary Material) of the radiometabolites from the unchanged parent compound [^11C]PF06885190 by gradient elution. Acetonitrile (A) and 0.1 M amoniumformate (B) were used as the mobile phase at flow rate 5.0 mL/min, according to the following program: 0−4.0 min, (A/B) 40:60 → 90:10 v/v; 4.0−6.0 min, (A/B) 90:10 v/v. a radioactive peak corresponding to [^11C]PF06885190 eluted from the HPLC column was integrated and the area was expressed as a percentage of the sum of the areas of all detected radioactive compounds. To calculate the recovery of radioactivity from the system, the eluate from the HPLC column was measured in a capintec dose calibrator and divided by the amount of total radioactivity injected into the HPLC.

monkey plasma proteins = experiment: Protein binding in plasma (ultrafiltration); type: in vitro ADME
Description: (§1) The free fraction (fp) in blood plasma was measured using an ultrafiltration method with the blood sample collected before the injection of [^11C]PF06885190. Plasma (0.4 mL) was mixed with [^11C]PF06885190 formulation (0.04 mL, ~1 MBq) and incubated at room temperature (RT) for 10 min. To estimate the non-specific binding percent, the same process was performed on phosphate buffered saline (PBS) (0.4 mL) as a control solution. After the incubation, 0.2 mL of the plasma and PBS incubated mixtures were pipetted into ultrafiltration tubes (Centrifree YM-30, molecular weight cutoff, 30,000 Da; Millipore: Billerica, MA, USA) and centrifuged at 3800 rpm for 15 min. Equal aliquots (0.02 mL) of the ultrafiltrate (Cfree) and the plasma (Ctotal) were counted for their radioactivity with a NaI well-counter. Each determination was performed in triplicate. The free fraction was then calculated as fp = Cfree/Ctotal, and the results were corrected for the membrane binding measured with the control samples.

[2] = Protein binding in plasma (ultrafiltration); type: in vitro ADME, monkey; details: male, cynomolgus, monkey, plasma, read-out: free fraction in plasma
Description: as §1

[3] = Stability of the radioligand in the formulation (analytical HPLC); type: physicochemical; details: sterile PBS formulation; up to 60 min / 1 h after end of synthesis
Description: The radiochemical purity and stability of [^11C]PF06885190 was determined by an analytical HPLC system coupled with an analytical XBridge column (C18 5 µm, 4.6 × 150 mm particle size), a Merck Hitachi L-7100 Pump, a L-7400 UV detector and a GM-tube for radioactivity detection (VWR International). A mixture of acetonitrile (30%) and HCO2NH4 (0.1 M aq. solution) (70%) with a flow rate of 2 mL/min was used as the HPLC isocratic mobile phase. The HPLC elution profile was monitored with an UV absorbance detector (ƛ = 254 nm) coupled to a radioactive detector (BETA-flow, Beckman, Fullerton, CA). [^11C]PF-06885190 was eluted with a retention time of (tR) 4.0–4.5 min (Figure S3, Supplementary Material) and the run time of the HPLC program was 8 min. The identity of the radiolabeled compounds was confirmed by HPLC with the co-injection of the corresponding authentic reference standard. The MA was calculated by analytical HPLC following the method described previously reported.

[4] = after pretreatment with donepezil

Cc1nc(N[11CH3])c2c(c1C)CN(C(=O)C[C@H]1C[C@@H]1c1ccc(F)nc1)C2 [[^11C]PF06885190]
parent compound in plasma ([1]; 5 min after injection): approximately 95%
parent compound in plasma ([1]; 60 min, after pretreatment with CVL-231): about 20%
parent compound in plasma ([1]; 60 min, after pretreatment with donepezil): about 30%
parent compound in plasma ([1]; 60 min, baseline condition): about 20%
Binding to monkey plasma proteins (monkey plasma proteins; [4]): 87.9 ± 0.3%
Binding to monkey plasma proteins (monkey plasma proteins; baseline): 75.2 ± 4.2%
fraction unbound at 10 min [2, 4]: 0.121
fraction unbound at 10 min ([2]; baseline): 0.248
stability in formulation, radiochemical purity [3]: exceeding 99%
